Measurements as given in patent US8415344B2, “Method of treating depression” (Brookhaven Science Associates, LLC, priority 2009, dated 2013).

What was measured:
[1] = Rothstein et al.; Lipski et al.; cited from earlier work
[2] = test system: astrocyte glutamate transporters; settings: Sun et al.; cited from earlier work
[3] = test system: rats exhibiting learned helplessness (cLH rat line); experiment: Learned helplessness testing (lever-press escape paradigm) of cLH rats pre- and post-treatment; assay type: in vivo; settings: oral diazoxide dissolved in NaOH, 10, 30 or 60 mg per day, three days
Method: At the age of 9 weeks, male rats are tested for learned helplessness. Testing consists of an escape paradigm, were 0.8 mA, 60 sec foot-shocks can be interrupted with a lever press. A trial not terminated within 20 seconds is considered a failure, and 10 or more failed trials out of 15 trials are treated as “helpless” phenotype. cNLH animals are exposed to a total of 20 unpredictable, unescapable foot-shocks (0.8 mA, 60 sec) 24 hours prior to testing. Five rats from the cLH rat line described in Example I are provided with orally administered diazoxide dissolved in NaOH over a period of three days. Two animals received 60 mg per day two received 30 mg, and one received 10 mg. Three rats in the control group received no treatment.

Compound | effectiveness in studies of neuroprotection [1] | stimulating the uptake of glutamate by astrocyte glutamate transporters [2] | number of lever presses post-treatment relative to pre-treatment [3]
CO/N=C(\C(=O)N[C@@H]1C(=O)N2C(C(=O)O)=C(CSc3nc(=O)c(=O)[nH]n3C)CS[C@H]12)c1csc(N)n1 [Ceftriaxone] | particularly effective |  | 
CC1=NS(=O)(=O)c2cc(Cl)ccc2N1 [diazoxide] |  | shown to be effective | substantial increase in the number of lever presses
CC(C)NC(C)(C)C(C)C [iptakalim] |  | shown to be effective | 
CC(N/C(=N\C#N)Nc1ccncc1)C(C)(C)C (centres unmarked) [pinacidil] |  | shown to be effective | 
